Experimental findings from PubChem BioAssay AID1996 are described below.

Converted amounts (≈) assume the structure as drawn. Non-standard residues stand in square brackets, D forms with d. Residues, ends and D or L forms follow the SMILES beside them. pGlu = O=C1CC[C@@H](C(=O)O)N1; Thz = O=C(O)[C@@H]1CSCN1 Bounds are passed on as bounds.

The conditions of this data set: buffer; pH 7.4; 200.0 µM.
`COc1ccc(Cl)cc1NC(=O)CN(C)CC(=O)N(CC(C)C)c1c(N)n(CC(C)C)c(=O)[nH]c1=O` returned a kinetic solubility of 77.9 µg/mL (≈ 149 µM).

`COc1ccccc1Cn1c(=O)oc2ccc(C)cc21` yielded a solubility (kinetic) of 2.9 µg/mL (≈ 10.8 µM). This solubility kinetic lies about 27-fold lower than the previous one.

As for `CC(C)(C)NC(=O)NC(=O)CN1CCN(c2ccccc2)CC1`, the kinetic solubility was greater than 47.8 µg/mL.

As to `COc1ccccc1CN(C)CC(=O)Nc1cccc(S(=O)(=O)N2CCCC2)c1.O=C(O)C(=O)O`, the solubility (kinetic) was 57.3 µg/mL.

The compound `CSc1ccccc1NS(=O)(=O)c1cccc2nonc12` returned a kinetic solubility greater than 48.2 µg/mL.

Compound `Cc1ccc(C2Nc3cccc4cccc(c34)N2)cc1` came in with a solubility (kinetic) of 4.7 µg/mL (≈ 18.1 µM).

`Cc1ccc(-c2nc(-c3ccncc3)no2)cc1` displayed a kinetic solubility of 1.1 µg/mL (≈ 4.64 µM).

Regarding `O=C(CN1CCN(c2ccccc2F)CC1)NCc1ccccc1`, the solubility (kinetic) came to 40.8 µg/mL (≈ 125 µM).

`CN1CCN(C(=O)C23CCC(C)(C(=O)C2Br)C3(C)C)CC1` (centres undefined) gave a solubility (kinetic) greater than 53.6 µg/mL.

`O=C(Cn1c(=O)oc2cccnc21)Nc1ccc(C(F)(F)F)cc1` displayed a kinetic solubility of 8.9 µg/mL (≈ 26.4 µM).

In the case of `COC(=O)Cc1c(O)ccn(CCc2ccccc2)c1=O`, the kinetic solubility was greater than 43.1 µg/mL.

Compound `N#Cc1ccc(C(=O)CSc2n[nH]c(=O)n2-c2cccnc2)cc1` came in with a solubility (kinetic) greater than 50.6 µg/mL.

`CCNC(=O)c1ccccc1SCC(=O)Nc1ccc(F)cc1` came in with a kinetic solubility greater than 49.9 µg/mL.

On to `COc1ccc(CC(=O)NC2CCSc3ccccc32)cc1OC` (centres undefined), for which the solubility (kinetic) stood at 0.7 µg/mL (≈ 2.04 µM).

Consider `O=C1CC[C@@H](C(=O)N2CSC[C@H]2C(=O)O)N1` ([pGlu]-[Thz]-OH), for which the kinetic solubility was greater than 36.6 µg/mL.

In turn, `CC1(C)OC(=O)C(=NNc2ccc(C(=O)O)cc2)C(=O)O1` showed a solubility (kinetic) greater than 43.8 µg/mL.

`CN(C)S(=O)(=O)c1ccc(=S)[nH]c1`: the kinetic solubility stood at 12.2 µg/mL (≈ 55.9 µM).

In the case of `O=C(Nc1cc([N+](=O)[O-])ccc1N1CCCC1)c1ccccc1`, the kinetic solubility came out at 1.5 µg/mL (≈ 4.82 µM).

Regarding `CCOc1ccc(Nc2cc(C)nc3c(C)cccc23)cc1`, the kinetic solubility turned out to be 24.5 µg/mL (≈ 83.8 µM).

In the case of `Cc1cccc(Nc2nc(-c3ccccc3)cs2)n1`, the kinetic solubility worked out at 0.3 µg/mL (≈ 1.12 µM).

Take `Cc1ccc(C(=O)NCCc2ccccc2)cc1N1CCCC1=O`: the solubility (kinetic) was greater than 48.4 µg/mL.

For the compound `Cc1cnc(C(=O)NCCc2ccc(Cl)cc2)cn1`, the kinetic solubility was 36 µg/mL (≈ 131 µM).

Regarding `O=C(COC(=O)Cc1c[nH]c2ccccc12)Nc1cc(S(=O)(=O)N2CCOCC2)ccc1Cl`, the solubility (kinetic) came to 12.7 µg/mL (≈ 25.8 µM).

For `Cc1cc(NC(=O)C(=O)NCc2cccc(Cl)c2)no1`, the solubility (kinetic) amounted to 3.2 µg/mL (≈ 10.9 µM). Compared with the last compound, the solubility kinetic is about 4-fold lower.

For `Cc1ccc(N2CC(C(=O)NCCN3CCOCC3)CC2=O)cc1C` (centres undefined), the kinetic solubility was greater than 51.8 µg/mL.

On to `ClCC1CN(Cc2ccccc2Cl)CCO1` (centres undefined), for which the kinetic solubility turned out to be 17.3 µg/mL (≈ 66.5 µM).

On to `COc1ccc(N=Cc2c(O)n(C)c(=O)[nH]c2=O)cc1`, for which the kinetic solubility turned out to be 2.2 µg/mL (≈ 7.99 µM).

With `O=C(CSc1ncccn1)NC(=O)c1ccccc1`, the solubility (kinetic) came out at 33.1 µg/mL (≈ 121 µM). This solubility kinetic is about 15-fold higher than that of the compound before.

`Cc1ccc(-c2csc(NC(=O)CN3CC(C)OC(C)C3)n2)cc1` (centres undefined): the solubility (kinetic) was 29.5 µg/mL (≈ 85.4 µM). The solubility kinetic values of the last two compounds are within 1.5-fold of each other.

Compound `Cc1cccc(C(=O)OCC(=O)N2CCCC2=O)c1O` had a solubility (kinetic) greater than 41.6 µg/mL.

`CSc1ccc(C2Nc3cccc4cccc(c34)N2)cc1` returned a solubility (kinetic) of 2.4 µg/mL (≈ 8.21 µM).

`COc1cc(C(=O)OCC(=O)NC2CCCCC2)cc(OC)c1OC` yielded a kinetic solubility greater than 52.7 µg/mL.

For `O=[N+]([O-])c1ccc2nc(NS(=O)(=O)c3ccccc3[N+](=O)[O-])sc2c1`, the solubility (kinetic) worked out at 55.7 µg/mL (≈ 146 µM).

The compound `COC(=O)C1CCN(Cc2cc(=O)oc3cc(C)c(Cl)cc23)CC1` yielded a solubility (kinetic) of 4.7 µg/mL (≈ 13.4 µM).

For `CNc1nc(SC)nc2ccccc12`, the kinetic solubility was greater than 30.8 µg/mL.

In turn, `O=C(Nc1ccc(-c2ccccc2)cc1)c1ccccc1` showed a solubility (kinetic) of 1 µg/mL (≈ 3.66 µM).

The compound `O=C(COC(=O)C12CC3CC(CC(O)(C3)C1)C2)Nc1ccc(Cl)c(S(=O)(=O)N2CCOCC2)c1` displayed a kinetic solubility greater than 77 µg/mL.

For `Cc1sc2ncnc(Sc3ccccc3C(=O)O)c2c1C`, the kinetic solubility was found to be 46.9 µg/mL (≈ 148 µM).

`Cc1ccc(C(=O)NCc2ccco2)cc1` yielded a kinetic solubility greater than 32.3 µg/mL.

With `CC1CCN(C(=O)COC(=O)CCC(=O)c2ccc(F)cc2)CC1`, the kinetic solubility was greater than 50.3 µg/mL.

Take `OC1CCNC(=S)N1c1ccccc1` (centres undefined): the kinetic solubility amounted to 30.7 µg/mL (≈ 147 µM).

In turn, `CN1CCN(CC(=O)Nc2nc3c(s2)CCCC3)CC1` showed a solubility (kinetic) greater than 44.2 µg/mL.

In turn, `Cc1csc(=O)n1CCC(=O)N(C)Cc1c(F)cccc1Cl` had a solubility (kinetic) greater than 51.4 µg/mL.

Turning to `CCc1c(C)c2ccc(O)c(CN3CCCC3)c2oc1=O`, the solubility (kinetic) was 41.6 µg/mL (≈ 145 µM).

In the case of `C#CCNC(=O)c1ccc(OCc2ccccc2)cc1Cl`, the kinetic solubility came to 41.7 µg/mL (≈ 139 µM).

In turn, `O=C(/C=C/c1c(Cl)cccc1Cl)NCCCn1ccnc1` showed a solubility (kinetic) of 46.1 µg/mL (≈ 142 µM).

As to `O=C(Nc1ccc(F)cc1)c1csc(Cc2ccccc2)n1`, the solubility (kinetic) stood at 1.3 µg/mL (≈ 4.16 µM).

On to `COc1cc(CN2CCC(CO)(CCOc3ccccc3)CC2)cc(OC)c1`, for which the kinetic solubility was 52.2 µg/mL (≈ 135 µM).

Consider `O=C(NC(=S)NCCCN1CCOCC1)c1ccco1`, for which the solubility (kinetic) was greater than 44.6 µg/mL.

The compound `Cl.ClC(CCN1CCN(Cc2ccccc2)CC1)c1ccccc1` (centres undefined) gave a kinetic solubility greater than 60.3 µg/mL.

As for `C=CCN(CC=C)CC(=O)Nc1cccc(Oc2cnccn2)c1`, the kinetic solubility is greater than 48.7 µg/mL.

On to `CC1CN(C(=O)C2CC(=O)N(c3ccc(Cl)cc3)C2)CC(C)O1` (centres undefined), for which the kinetic solubility was greater than 50.5 µg/mL.

In turn, `COc1ccccc1CN1CCc2c([nH]c3ccccc23)C1` gave a solubility (kinetic) of 33.1 µg/mL (≈ 113 µM).

The compound `Cc1ccc(NC(=S)N2CCCCCC2)c(C)c1` yielded a kinetic solubility greater than 39.4 µg/mL.

On to `CC(=O)c1c(C)n(-c2ccc(C)cc2C)c2ccc(O)cc12`, for which the solubility (kinetic) was less than 0.6 µg/mL.

In the case of `COc1cccc(C(=O)Nc2ccc3c(c2)OCO3)c1OC`, the solubility (kinetic) was 36.8 µg/mL (≈ 122 µM).

`COc1cc(OC)c2c(c1)S(=O)(=O)C(c1ccccc1)=C2N` returned a solubility (kinetic) of 5.1 µg/mL (≈ 16.1 µM). Compared with the last compound, the solubility kinetic is about 7.2-fold lower.

The compound `CSc1ncc(Cl)c(C(=O)NCc2cccnc2)n1` registered a kinetic solubility greater than 44.2 µg/mL.

In turn, `Fc1cccc(Cc2noc(CN3CCOCC3)n2)c1` showed a solubility (kinetic) greater than 41.6 µg/mL.

Take `Cc1cc(=O)[nH]c(SCC(=O)N2CCN(C(=O)c3ccco3)CC2)n1`: the kinetic solubility is greater than 54.4 µg/mL.

For the compound `CCc1ccccc1OCC(=O)OCC(=O)N1CC(=O)Nc2ccccc21`, the kinetic solubility is 35.7 µg/mL (≈ 96.9 µM).

For `CC(C)n1c(SCC(=O)NC2CC2)nnc1-c1ccco1`, the kinetic solubility was greater than 46 µg/mL.

In turn, `Cc1cccc(C)c1OCC(O)CNC(C)c1ccccc1.Cl` (centres undefined) returned a kinetic solubility greater than 50.4 µg/mL.

Compound `Cc1cc(C(=O)N2CCC3(CC2)OCCO3)no1` gave a solubility (kinetic) greater than 37.8 µg/mL.

Turning to `Cc1cc(CNC(=S)Nc2cccc(Cl)c2Cl)nn1C`, the solubility (kinetic) is greater than 49.4 µg/mL.

Compound `Cc1ccc(C(=O)N2C3=C(CCCC3)C(=O)NC23CCCCC3)cc1` registered a kinetic solubility of 2.1 µg/mL (≈ 6.2 µM).

`Nc1cc(C(F)(F)F)ccc1OCC1CCCO1` (centres undefined) returned a kinetic solubility of 32.8 µg/mL (≈ 126 µM).

The compound `N#CC1(NC(=O)CSc2nc3ccccc3s2)CCCCC1` had a kinetic solubility of 46.4 µg/mL (≈ 140 µM).

For `COc1ccc(C)cc1S(=O)(=O)n1c([N+](=O)[O-])cnc1C`, the solubility (kinetic) is greater than 46.7 µg/mL.

With `COCCn1cnc2c1c(=O)n(CC(=O)NCC(F)(F)F)c(=O)n2Cc1ccccc1`, the solubility (kinetic) stood at 39.9 µg/mL (≈ 90.8 µM).

For the compound `O=C(O)C1CCCN1S(=O)(=O)c1ccc(F)cc1` (centres undefined), the kinetic solubility is greater than 41 µg/mL.

Compound `O=C(CSc1ccc([N+](=O)[O-])cc1)OCC(=O)N1CCCC1=O` came in with a solubility (kinetic) of 50.3 µg/mL (≈ 149 µM).

`O=C(Nc1cc(S(=O)(=O)N2CCOCC2)ccc1N1CCOCC1)c1c(F)cccc1Cl` registered a kinetic solubility of 2.2 µg/mL (≈ 4.55 µM).

In turn, `CCSc1nc2ccc(C)cc2cc1C#N` came in with a solubility (kinetic) of less than 0.2 µg/mL.

For orientation: solubility (kinetic) means solubility judged after dilution from a stock solution rather than from solid.
